According to PubChem BioAssay (NCI):
Where “and” joins values, the source holds several entries; their conditions need not be identical. Identical values can stand only once.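 Exposure lasted 48 hours, with cells grown in 96-well plates and compounds tested at five concentrations. Abbreviation: GI50, concentration required for 50% inhibition of growth. TGI is the concentration that stops growth completely.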

Experiments:
Test in all cases: NCI anticancer screen, dose series, 48 h
[1] = test system: SNB-75 CNS
[2] = test system: UO-31 renal
[3] = test system: TK-10 renal
[4] = test system: HOP-62 NSCLC
[5] = test system: SN12C renal
[6] = test system: U251 CNS
[7] = test system: LOX IMVI melanoma
[8] = test system: 786-0 renal
[9] = test system: NCI/ADR-RES ovarian
[10] = test system: CAKI-1 renal

Compound: O=C(NC[C@H](O)CO)c1ccncc1Nc1ccc(I)cc1F
- GI50 [1]: > 10 µM and 33.2 µM
- TGI [1]: > 100 µM
- GI50 [2]: 0.2 µM and 0.988 µM
- TGI [2]: > 10 µM and 20.3 µM
- TGI [3]: > 100 µM
- GI50 [4]: 0.0472 µM and 0.298 µM
- TGI [4]: > 94 µM
- GI50 [5]: > 7.13 µM and 7.74 µM
- TGI [5]: > 100 µM
- GI50 [6]: 1.84 µM and 4.92 µM
- TGI [6]: > 100 µM
- TGI [7]: > 10 µM and 22.4 µM
- GI50 [8]: > 10 µM and 6.21 µM
- TGI [8]: > 100 µM
- GI50 [9]: > 10 µM and 35 µM
- TGI [9]: > 100 µM
- GI50 [10]: 0.59 µM and 1.38 µM
- TGI [10]: > 100 µM

Compound: CCN(CC)Cc1ccc(Nc2nccc(-c3cnn4ncccc34)n2)cc1
- GI50 [1]: 0.0114 µM
- TGI [1]: 0.0529 µM
- GI50 [2]: 0.0114 µM
- TGI [2]: > 8.73 µM
- GI50 [3]: 0.0236 µM
- TGI [3]: 0.188 µM
- GI50 [4]: 0.0145 µM
- TGI [4]: > 25 µM
- GI50 [5]: 0.0141 µM
- TGI [5]: > 25 µM
- GI50 [6]: 0.014 µM
- TGI [6]: > 25 µM
- GI50 [7]: 0.00767 µM
- TGI [7]: > 25 µM
- GI50 [8]: 0.0133 µM
- TGI [8]: > 12.9 µM
- GI50 [9]: 0.032 µM
- TGI [9]: > 25 µM
- GI50 [10]: 0.0469 µM
- TGI [10]: > 9.11 µM

Compound: C[C@]12CC[C@H]3[C@@H](CC[C@]4(O)C[C@@H](O)CC[C@]34/C=N/O)[C@@]1(O)CC[C@@H]2C1=COC(=O)C1
- TGI [1]: 4.44 µM
- TGI [3]: 0.454 µM
- TGI [5]: 1.24 µM
- TGI [7]: 0.489 µM
- TGI [8]: 0.362 µM
- TGI [9]: 0.604 µM
- TGI [10]: 0.0476 µM

Compound: COc1ccc(/C=C\c2cc(OC)c(OC)c(OC)c2)cc1OC
- TGI [1]: 40.4 µM
- GI50 [2]: 0.805 µM
- TGI [2]: 40.4 µM and 50.3 µM
- GI50 [3]: 23.5 µM
- TGI [3]: 40.4 µM and > 100 µM
- GI50 [4]: 0.58 µM
- TGI [4]: 40.4 µM and > 100 µM
- GI50 [5]: 0.94 µM
- GI50 [6]: 0.0975 µM
- GI50 [7]: 0.0829 µM
- TGI [7]: 40.4 µM and 17.7 µM
- GI50 [8]: 0.616 µM
- TGI [8]: 40.4 µM and > 100 µM
- TGI [9]: > 100 µM
- TGI [10]: 40.4 µM

Compound: O=C(Nc1cccc(NC(=O)Nc2cc(C(F)(F)F)ccc2Cl)c1)Nc1cc(C(F)(F)F)ccc1Cl
- GI50 [1]: 1.56 µM
- TGI [1]: 4.51 µM
- GI50 [2]: 2.49 µM
- TGI [2]: 14.7 µM
- GI50 [3]: 2.57 µM
- TGI [3]: 11.5 µM
- GI50 [4]: 1.35 µM
- TGI [4]: 4.01 µM
- GI50 [5]: 2.56 µM
- TGI [5]: 23.9 µM
- GI50 [6]: 1.93 µM
- TGI [6]: 7.91 µM
- GI50 [7]: 3.47 µM
- TGI [7]: 15.4 µM
- GI50 [8]: 4.93 µM
- TGI [8]: > 100 µM
- GI50 [9]: 3.01 µM
- TGI [9]: 17.7 µM
- GI50 [10]: 3.14 µM
- TGI [10]: > 100 µM

Compound: Cn1cc(C2=C(c3cccc(OCC(O)CO)c3)C(=O)NC2=O)c2ccccc21 (stereo not drawn)
- GI50 [1]: 5.86 µM
- TGI [1]: > 25 µM
- GI50 [2]: > 25 µM
- TGI [2]: > 25 µM
- GI50 [3]: > 25 µM
- TGI [3]: > 25 µM
- GI50 [4]: > 25 µM
- TGI [4]: > 25 µM
- GI50 [5]: > 25 µM
- TGI [5]: > 25 µM
- GI50 [6]: > 25 µM
- TGI [6]: > 25 µM
- GI50 [7]: > 25 µM
- TGI [7]: > 25 µM
- GI50 [8]: > 25 µM
- TGI [8]: > 25 µM
- GI50 [9]: > 25 µM
- TGI [9]: > 25 µM
- GI50 [10]: > 25 µM
- TGI [10]: > 25 µM

Compound: CN(C)c1ccc2c(c1)OC(N)=C(C#N)C2c1ccc2c(c1)CCO2 (stereo not drawn)
- GI50 [1]: 0.0812 µM
- TGI [1]: > 49.4 µM
- GI50 [2]: 0.362 µM
- TGI [2]: 35.4 µM
- GI50 [3]: 15.9 µM
- TGI [3]: > 100 µM
- TGI [4]: > 76.7 µM
- GI50 [5]: 0.644 µM
- TGI [5]: 42.5 µM
- GI50 [6]: 0.198 µM
- TGI [6]: 29.8 µM
- GI50 [7]: 0.053 µM
- TGI [7]: 17.9 µM
- GI50 [8]: 0.0502 µM
- TGI [8]: 25.1 µM
- GI50 [9]: < 0.0279 µM
- TGI [9]: > 22.1 µM
- GI50 [10]: 0.147 µM
- TGI [10]: > 100 µM

Compound: COc1ccc(C(=O)c2cc3c(N)c(C(=O)Nc4cccc5ccccc45)sc3nc2C)cc1
- GI50 [1]: 0.137 µM
- TGI [1]: > 50 µM
- GI50 [2]: 0.422 µM
- TGI [2]: > 50 µM
- GI50 [3]: > 50 µM
- TGI [3]: > 50 µM
- GI50 [4]: 0.314 µM
- TGI [4]: > 50 µM
- GI50 [5]: 0.32 µM
- TGI [5]: > 50 µM
- GI50 [6]: 0.194 µM
- TGI [6]: > 50 µM
- GI50 [7]: 0.287 µM
- TGI [7]: > 50 µM
- GI50 [8]: 0.305 µM
- TGI [8]: > 50 µM
- GI50 [9]: 0.181 µM
- TGI [9]: > 50 µM
- GI50 [10]: 0.243 µM
- TGI [10]: > 50 µM

Compound: C1CN(SSN2CCOCC2)CCO1
- GI50 [1]: 44.1 µM
- TGI [1]: > 100 µM
- GI50 [2]: 49.5 µM
- TGI [2]: > 100 µM
- GI50 [3]: > 100 µM
- TGI [3]: > 100 µM
- GI50 [4]: 78.5 µM
- TGI [4]: > 100 µM
- GI50 [5]: 26.6 µM
- TGI [5]: 77.8 µM
- GI50 [6]: 33.6 µM
- TGI [6]: > 100 µM
- GI50 [8]: 21 µM
- TGI [8]: 37.1 µM
- GI50 [9]: 35.3 µM
- TGI [9]: > 100 µM
- GI50 [10]: 33.7 µM
- TGI [10]: > 100 µM

Compound: O=C(Nc1ccc(Cl)c(Cl)c1)O/N=C\c1c(Cl)ccc([N+](=O)[O-])c1Cl
- GI50 [1]: 2.12 µM
- TGI [1]: 9.5 µM
- GI50 [2]: 1.45 µM
- TGI [2]: 2.88 µM
- GI50 [4]: 3.07 µM
- TGI [4]: 11 µM
- GI50 [5]: 2.59 µM
- TGI [5]: 8.52 µM
- GI50 [6]: 1.68 µM
- TGI [6]: 3.14 µM
- GI50 [7]: 1.24 µM
- TGI [7]: 2.76 µM
- GI50 [8]: 3.96 µM
- TGI [8]: 13.5 µM
- GI50 [9]: 4.33 µM
- TGI [9]: 17.2 µM
- GI50 [10]: 1.67 µM
- TGI [10]: 3.38 µM

Compound: C=C1C(=O)OC2/C=C(/C)C(OC(C)=O)CC(O)/C(C)=C\C(OC(=O)/C(C)=C\C)C12 (stereo not drawn)
- TGI [1]: > 100 µM
- TGI [3]: > 100 µM
- TGI [4]: > 100 µM
- TGI [5]: > 100 µM
- TGI [6]: > 100 µM
- TGI [7]: > 100 µM
- TGI [8]: 35.4 µM
- TGI [9]: > 100 µM
- TGI [10]: 86.4 µM

Compound: COc1ccc2c(c1)C(=O)c1c-2c(N(C)C)nc2ccccc12
- GI50 [1]: 57.6 µM
- TGI [1]: > 100 µM
- GI50 [2]: > 100 µM
- TGI [2]: > 100 µM
- GI50 [3]: 88.9 µM
- TGI [3]: > 100 µM
- GI50 [4]: > 100 µM
- TGI [4]: > 100 µM
- GI50 [5]: 95.3 µM
- TGI [5]: > 100 µM
- GI50 [6]: > 100 µM
- TGI [6]: > 100 µM
- GI50 [7]: > 100 µM
- TGI [7]: > 100 µM
- GI50 [8]: > 100 µM
- TGI [8]: > 100 µM
- GI50 [9]: > 100 µM
- TGI [9]: > 100 µM

Compound: CCSCCCN(CCCSCC)CCCSCC
- TGI [1]: > 100 µM
- TGI [2]: > 100 µM
- TGI [4]: > 100 µM
- TGI [5]: > 100 µM
- TGI [6]: > 100 µM
- TGI [7]: > 100 µM
- TGI [8]: > 100 µM
- TGI [9]: > 100 µM

Compound: C/C=C(/COC(C)=O)C(=O)OC1C=C(C=O)C(C)(C)C=C1C (stereo not drawn)
- TGI [1]: > 100 µM
- TGI [2]: > 100 µM
- TGI [3]: > 100 µM
- TGI [5]: > 100 µM
- TGI [6]: > 100 µM
- TGI [7]: > 100 µM
- TGI [8]: > 100 µM
- TGI [9]: > 100 µM
- TGI [10]: > 100 µM

Compound: CC1=C(CO)C(=O)O[C@@H]([C@@H](C)[C@H]2CC[C@H]3[C@@H]4C[C@@H](O)[C@@]5(O)CC=CC(=O)[C@]5(C)[C@H]4CC[C@]23C)C1
- TGI [1]: > 100 µM
- TGI [3]: > 100 µM
- TGI [4]: > 100 µM
- TGI [5]: > 100 µM
- TGI [6]: > 100 µM
- TGI [7]: > 100 µM
- TGI [8]: 90.8 µM
- TGI [9]: 64.2 µM
- TGI [10]: > 100 µM
